The values that follow are results of earlier work, collected in patent publication US20090214619A1, “IMPLANT FOR INTRAOCULAR DRUG DELIVERY” (THERAKINE LTD., priority 2004, published 2009).

Data set [1] concerns degenerative diseases such as choroidal neovascularization, macular edema, macular degeneration, branch retinal vein occlusion. The settings on record: patients with choroidal neovascularization.
In another data set the test system is HSP induced uveitis. The conditions noted are these: rats with HSP induced uveitis; decreased from 68% without treatment.

With Infliximab: chimeric Anti TNF Mab, in data set [1], the effect on vision entry is “improve vision”.

B1: IL-4: pleiotropic cytokine produced by activated T cells, mast cells, and basophiles (protein, UniProt P05112 25-153, looked up)
Interleukin-4: HKCDITLQEIIKTLNSLTEQKTLCTELTVTDIFAASKNTTEKETFCRAATVLRQFYSHHEKDTRCLGATAQQFHRHKQLIRFLKRLDRNLWGLAGLNSCPVKEANQSTLENFLERLKTIMREKYSKCSS
Consider B1, for which the development of uveitis with HSP induced uveitis is 30.4%.
